Laboratory results published in US11548868B2, “Heterocyclic compounds, compositions comprising heterocyclic compound, and methods of use thereof” (JS INNOPHARM (SHANGHAI) LTD, priority 2017, dated 2023).

Tests used:
[1] = target: T1, TDO2 in A172 cancer cells (Homo sapiens, UniProt P48775); assay: TDO2 Cellular Assay (kynurenine production in A172 cancer cells); type: cell-based; details: L-Trp 1 mM, 24 hours incubation, kynurenine at 490 nm
T1 construct: endogenous in cells; host or cells: A172 cancer cells
Outline: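 A172 cells seeded overnight, then given 1 mM L-Trp and test compound (0–25 μM, 0.25% DMSO) for 24 h at 37 °C. Supernatant treated with TCA at 50 °C to convert N-formylkynurenine, kynurenine detected with p-dimethylaminobenzaldehyde at 490 nm; IC50 by non-linear regression of inhibition versus DMSO control.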

[2] = target: T2, IDO1 in Hela cancer cells (Homo sapiens, UniProt P14902); assay: IDO1 Cellular Assay (kynurenine production in IFN-γ stimulated Hela cancer cells); type: cell-based; details: human IFN-γ 50 ng/mL, 48 hours incubation, kynurenine at 490 nm
T2 construct: endogenous in cells; host or cells: Hela cancer cells stimulated with human IFN-γ
Experimental: Hela cancer cells (5×10^3 per well) with 85 μL DMEM medium containing 10% FBS were seeded in a 96-well plate and incubated at 95% humidity and 5% CO2 at 37° C. for 24 hours. human IFN-γ (10 μL, 50 ng/mL final concentration) and 5 μL serial dilutions of the test compounds were added into each well. The test compounds were dissolved in DMSO, and successively diluted with pH7.5 buffer (with final DMSO concentration of 0.25%) resulting in final concentrations of the test compounds ranging from 0 to 25 μM (0, 2.5, 7.5, 25, 75, 250, 750, 2500, 7500, & 25000 nM). After 48 hours of incubation, 70 uL of the supernatant per well was transferred to a new 96 well plate. Trichloroacetic acid (6.1 N, 8 μL) was mixed into each well and incubated at 50° C. for 30 min to hydrolyze N-formylkynurenine produced by IDO to kynurenine. The reaction mixture was then centrifuged for 10 min at 2500 RPM to remove sediments. 50 μL of the supernatant per well was transferred to another 96 well plate and mixed with 50 uL of 2% (w/v) p-dimethylaminobenzaldehyde in acetic acid. The yellow color derived from kynurenine was measured at 490 nm using a microplate reader. Percent inhibition of the test compounds was determined by measuring the decrease in kynurenine as compared to the control of DMSO vehicle, which was calculated by formula of (WC-WT)/WC, where WC is the mean absorbance of the control well minus blank well; WT is the mean absorbance of the test well minus the blank well. Data was analyzed by GraphPad Prism 5 and the IC50 values were obtained by non-linear regression.
The IC50 values of for Compounds disclosed are listed in Table 2, A′: ≤0.5 μM; B′: >0.5 μM and ≤1 μM; C′: >1.0 μM and ≤5 uM; and D′: >5 μM.

T2 sequence (P14902 whole entry): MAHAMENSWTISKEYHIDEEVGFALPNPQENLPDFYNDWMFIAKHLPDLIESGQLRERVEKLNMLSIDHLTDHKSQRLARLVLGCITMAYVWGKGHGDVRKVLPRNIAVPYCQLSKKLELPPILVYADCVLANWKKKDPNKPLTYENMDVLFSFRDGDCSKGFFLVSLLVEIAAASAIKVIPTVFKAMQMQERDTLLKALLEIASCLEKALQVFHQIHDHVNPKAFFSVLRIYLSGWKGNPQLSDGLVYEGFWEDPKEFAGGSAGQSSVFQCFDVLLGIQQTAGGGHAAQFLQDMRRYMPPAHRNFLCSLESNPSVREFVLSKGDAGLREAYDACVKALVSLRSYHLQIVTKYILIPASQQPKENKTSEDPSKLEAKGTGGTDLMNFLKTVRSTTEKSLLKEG
T1 sequence (P48775 whole entry): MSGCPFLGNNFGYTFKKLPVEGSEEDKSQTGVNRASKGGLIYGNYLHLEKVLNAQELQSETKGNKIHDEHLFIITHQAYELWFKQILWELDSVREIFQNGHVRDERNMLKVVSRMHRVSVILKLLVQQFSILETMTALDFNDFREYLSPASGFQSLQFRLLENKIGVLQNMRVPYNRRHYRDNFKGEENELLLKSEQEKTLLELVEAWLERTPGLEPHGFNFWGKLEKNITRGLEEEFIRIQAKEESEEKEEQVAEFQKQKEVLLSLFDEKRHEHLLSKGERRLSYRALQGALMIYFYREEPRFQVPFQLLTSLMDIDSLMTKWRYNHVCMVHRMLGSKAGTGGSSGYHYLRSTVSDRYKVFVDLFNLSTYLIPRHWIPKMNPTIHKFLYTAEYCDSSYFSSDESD

## CC(=O)N[C@H]1[C@@H]2C[C@@](O)(c3cc(Cl)cc4[nH]ncc34)C[C@@H]21 [Example 64, N-((1R,3r,5S,6r)-3-(6-chloro-1H-indazol-4-yl)-3-hydroxybicyclo[3.1.0]hexan-6-yl)acetamide]
[1]
  IC50: ≤ 0.5 µM
[2]
  IC50: > 5 µM

## O=C(N[C@H]1[C@@H]2C[C@@](O)(c3cc(Cl)cc4[nH]ncc34)C[C@@H]21)c1ccncc1 [Example 83, N-((1R,3r,5S,6r)-3-(6-chloro-1H-indazol-4-yl)-3-hydroxybicyclo[3.1.0]hexan-6-yl)isonicotinamide]
[1]
  IC50: ≤ 0.5 µM
[2]
  IC50: 0.5 to 1 µM

## CNS(=O)(=O)N1C[C@@H]2C[C@@](O)(c3cc(Cl)cc4[nH]ncc34)C[C@@H]2C1 [Example 87, (3aR,5r,6aS)-5-(6-chloro-1H-indazol-4-yl)-5-hydroxy-N-methylhexahydrocyclopenta[c]pyrrole-2(1H)-sulfonamide]
[1]
  IC50: ≤ 0.5 µM
[2]
  IC50: 1 to 5 µM

## O=C(N[C@H]1[C@@H]2C[C@@](O)(c3cc(Cl)cc4[nH]ncc34)C[C@@H]21)c1ccccc1 [Example 93, N-((1R,3r,5S,6r)-3-(6-chloro-1H-indazol-4-yl)-3-hydroxybicyclo[3.1.0]hexan-6-yl)benzamide]
[1]
  IC50: ≤ 0.5 µM
[2]
  IC50: 0.5 to 1 µM

## O=S(=O)(N[C@H]1[C@@H]2C[C@@](O)(c3cc(Cl)cc4[nH]ncc34)C[C@@H]21)c1ccccc1 [Example 95, N-((1R,3r,5S,6r)-3-(6-chloro-1H-indazol-4-yl)-3-hydroxybicyclo[3.1.0]hexan-6-yl)benzenesulfonamide]
[1]
  IC50: ≤ 0.5 µM
[2]
  IC50: > 5 µM

## CS(=O)(=O)N1C[C@@H]2C[C@@](O)(c3cc(Cl)cc4cn[nH]c34)C[C@@H]2C1 [Example 96, (3aR,5r,6aS)-5-(5-chloro-1H-indazol-7-yl)-2-(methylsulfonyl)octahydrocyclopenta[c]pyrrol-5-ol]
[1]
  IC50: 1 to 5 µM
[2]
  IC50: 1 to 5 µM

## O=C(C1CCOCC1)N1C[C@@H]2C[C@@](O)(c3cc(Cl)cc4cn[nH]c34)C[C@@H]2C1 [Example 97, ((3aR,5r,6aS)-5-(5-chloro-1H-indazol-7-yl)-5-hydroxyhexahydrocyclopenta[c]pyrrol-2(1H)-yl)(tetrahydro-2H-pyran-4-yl)methanone]
[1]
  IC50: > 5 µM
[2]
  IC50: > 5 µM

## O=C(c1ccccc1)N1C[C@@H]2C[C@@](O)(c3cc(Cl)cc4cn[nH]c34)C[C@@H]2C1 [Example 98, ((3aR,5r,6aS)-5-(5-chloro-1H-indazol-7-yl)-5-hydroxyhexahydrocyclopenta[c]pyrrol-2(1H)-yl)(phenyl)methanone]
[1]
  IC50: > 5 µM
[2]
  IC50: > 5 µM

## O=C(C1CC1)N1C[C@@H]2C[C@@](O)(c3cc(Cl)cc4cn[nH]c34)C[C@@H]2C1 [Example 99, ((3aR,5r,6aS)-5-(5-chloro-1H-indazol-7-yl)-5-hydroxyhexahydrocyclopenta[c]pyrrol-2(1H)-yl)(cyclopropyl)methanone]
[1]
  IC50: 1 to 5 µM
[2]
  IC50: > 5 µM

## O=S(=O)(C1CC1)N1C[C@@H]2C[C@@](O)(c3cc(Cl)cc4cn[nH]c34)C[C@@H]2C1 [Example 100, (3aR,5r,6aS)-5-(5-chloro-1H-indazol-7-yl)-2-(cyclopropylsulfonyl)octahydrocyclopenta[c]pyrrol-5-ol]
[1]
  IC50: 1 to 5 µM
[2]
  IC50: > 5 µM

## O=S(=O)(C1CCOCC1)N1C[C@@H]2C[C@@](O)(c3cc(Cl)cc4cn[nH]c34)C[C@@H]2C1 [Example 101, (3aR,5r,6aS)-5-(5-chloro-1H-indazol-7-yl)-2-((tetrahydro-2H-pyran-4-yl)sulfonyl)octahydrocyclopenta[c]pyrrol-5-ol]
[1]
  IC50: 1 to 5 µM
[2]
  IC50: > 5 µM

## O=S(=O)(c1ccccc1)N1C[C@@H]2C[C@@](O)(c3cc(Cl)cc4cn[nH]c34)C[C@@H]2C1 [Example 102, (3aR,5r,6aS)-5-(5-chloro-1H-indazol-7-yl)-2-(phenylsulfonyl)octahydrocyclopenta[c]pyrrol-5-ol]
[1]
  IC50: > 5 µM
[2]
  IC50: > 5 µM

## CC(=O)N1C[C@H]2CC(C(O)c3cc(Cl)cc4[nH]ncc34)C[C@H]2C1 (stereo partly drawn) [Example 104, 1-((3aR,6aS)-5-((6-chloro-1H-indazol-4-yl)(hydroxy)methyl)hexahydrocyclopenta[c]pyrrol-2(1H)-yl)ethanone]
[1]
  IC50: 0.5 to 1 µM
[2]
  IC50: > 5 µM

## CS(=O)(=O)N1C[C@H]2CC(C(O)c3cc(Cl)cc4[nH]ncc34)C[C@H]2C1 (stereo partly drawn) [Example 105, (6-chloro-1H-indazol-4-yl)((3aR,6aS)-2-(methylsulfonyl)octahydrocyclopenta[c]pyrrol-5-yl)methanol]
[1]
  IC50: ≤ 0.5 µM
[2]
  IC50: > 5 µM

## O[C@@H]1C[C@@H]2C[C@@](O)(c3cc(Cl)cc4cn[nH]c34)C[C@@H]2C1 [Example 106, (2r,3aR,5s,6aS)-2-(5-chloro-1H-indazol-7-yl)octahydropentalene-2,5-diol]
[1]
  IC50: 0.5 to 1 µM
[2]
  IC50: > 5 µM

## O=C(N[C@H]1[C@@H]2C[C@@](O)(c3cc(Cl)cc4cn[nH]c34)C[C@@H]21)C1CC1 [Example 107, N-((1R,3r,5S,6r)-3-(5-chloro-1H-indazol-7-yl)-3-hydroxybicyclo[3.1.0]hexan-6-yl)cyclopropanecarboxamide]
[1]
  IC50: ≤ 0.5 µM
[2]
  IC50: > 5 µM

## CC(=O)N[C@H]1[C@@H]2C[C@@](O)(c3cc(Cl)cc4cn[nH]c34)C[C@@H]21 [Example 108, N-((1R,3r,5S,6r)-3-(5-chloro-1H-indazol-7-yl)-3-hydroxybicyclo[3.1.0]hexan-6-yl)acetamide]
[1]
  IC50: ≤ 0.5 µM
[2]
  IC50: > 5 µM

## CS(=O)(=O)N[C@H]1[C@@H]2C[C@@](O)(c3cc(Cl)cc4cn[nH]c34)C[C@@H]21 [Example 109, N-((1R,3r,5S,6r)-3-(5-chloro-1H-indazol-7-yl)-3-hydroxybicyclo[3.1.0]hexan-6-yl)methanesulfonamide]
[1]
  IC50: 0.5 to 1 µM
[2]
  IC50: 1 to 5 µM

## O=S(=O)(N[C@H]1[C@@H]2C[C@@](O)(c3cc(Cl)cc4cn[nH]c34)C[C@@H]21)C1CC1 [Example 110, N-((1R,3r,5S,6r)-3-(5-chloro-1H-indazol-7-yl)-3-hydroxybicyclo[3.1.0]hexan-6-yl)cyclopropanesulfonamide]
[1]
  IC50: 1 to 5 µM
[2]
  IC50: 1 to 5 µM

## OCC1[C@H]2C[C@](O)(c3cc(Cl)cc4[nH]ncc34)C[C@@H]12 (stereo partly drawn) [Example 111, (1R,3r,5S)-3-(6-chloro-1H-indazol-4-yl)-6-(hydroxymethyl)bicyclo[3.1.0]hexan-3-ol]
[1]
  IC50: ≤ 0.5 µM
[2]
  IC50: 1 to 5 µM

## CC(=O)N1C[C@H]2CC(C(O)c3cc(Cl)cc4cn[nH]c34)C[C@H]2C1 (stereo partly drawn) [Example 112, 1-((3aR,6aS)-5-((5-chloro-1H-indazol-7-yl)(hydroxy)methyl)hexahydrocyclopenta[c]pyrrol-2(1H)-yl)ethanone]
[1]
  IC50: > 5 µM
[2]
  IC50: 0.5 to 1 µM

## CS(=O)(=O)N1C[C@H]2CC(C(O)c3cc(Cl)cc4cn[nH]c34)C[C@H]2C1 (stereo partly drawn) [Example 113, (5-chloro-1H-indazol-7-yl)((3aR,6aS)-2-(methylsulfonyl)octahydrocyclopenta[c]pyrrol-5-yl)methanol]
[1]
  IC50: 1 to 5 µM
[2]
  IC50: 1 to 5 µM

## CNC(=O)N[C@H]1[C@@H]2C[C@@](O)(c3cc(Cl)cc4[nH]ncc34)C[C@@H]21 [Example 114, 1-((1R,3r,5S,6r)-3-(6-chloro-1H-indazol-4-yl)-3-hydroxybicyclo[3.1.0]hexan-6-yl)-3-methylurea]
[1]
  IC50: ≤ 0.5 µM
[2]
  IC50: > 5 µM

## O=C(Nc1ccccc1)N[C@H]1[C@@H]2C[C@@](O)(c3cc(Cl)cc4[nH]ncc34)C[C@@H]21 [Example 115, 1-((1R,3r,5S,6r)-3-(6-chloro-1H-indazol-4-yl)-3-hydroxybicyclo[3.1.0]hexan-6-yl)-3-phenylurea]
[1]
  IC50: ≤ 0.5 µM
[2]
  IC50: 1 to 5 µM

## O[C@@]1(c2cc(Cl)cc3[nH]ncc23)C[C@H]2CN(c3ccncc3)C[C@H]2C1 [Example 116, (3aR,5r,6aS)-5-(6-chloro-1H-indazol-4-yl)-2-(pyridin-4-yl)octahydrocyclopenta[c]pyrrol-5-ol]
[1]
  IC50: ≤ 0.5 µM
[2]
  IC50: > 5 µM

## O[C@@]1(c2cc(Cl)cc3cn[nH]c23)C[C@H]2CN(c3ccncc3)C[C@H]2C1 [Example 117, (3aR,5r,6aS)-5-(5-chloro-1H-indazol-7-yl)-2-(pyridin-4-yl)octahydrocyclopenta[c]pyrrol-5-ol]
[1]
  IC50: > 5 µM
[2]
  IC50: > 5 µM
